Measured values as given in patent US8741889B2, “Method of treating non-small cell lung cancer and colon cancer with gamma-secretase inhibitor” (Hoffmann-La Roche Inc, priority 2008, dated 2014).

Key:
[1] = tested on: A549 cells; assay: FACS cell cycle analysis in A549 cells; assay type: cell-based, human
Method: The A549 cell line was obtained from the American Tissue Culture Collection (ATCC), Manassas, Va. and maintained in Ham's media supplemented with 10% heat-inactivated Fetal Bovine Serum (HI-FBS; GIBCO/BRL, Gaithersburg, Md.) and 2 mM L-glutamine (GIBCO/BRL). 1×10^6 A549 cells were seeded in […] plates for FACS analysis and 3×10^5 cells per well were seeded in 6-well plate for Western blot analysis. Cells were allowed to attach for 24 hours and then treated with compound (1) compound at the following concentrations: 0.1, 0.25, 0.5, 1, 2.5 and 5 μM. Cells were incubated for either 72 or 120 hours and collected for FACS analysis.
Cells were incubated with compound (1) for 72 or 120 hours, harvested by scraping, washed twice in phosphate-buffered saline (PBS), spun down at 1.5×10^3 rpm, and fixed at −20° C. overnight with 70% ethanol. Cells were then analyzed using MPM2-FITC and propidium iodide (PI) double staining (Becton Dickinson, San Jose, Calif.). Briefly, cells were washed twice with cold PBS containing 0.05% Tween-20 (PBST), incubated for 2 hours with anti-Phospho Ser/Thr MPM2 antibody (#05-368, Upstate/Millipore, Bullerica, Mass.), washed with PBST again, incubated in the dark with secondary IgG-FITC antibody (#AP308F, Chemicon, Temecula, Calif.), washed with PBST and incubated with PI/RNase solution (Becton Dickinson, San Jose, Calif.) for additional 30 min at 37° C.
Samples were analyzed on a FACScan flow cytometer (Becton Dickinson, San Jose, Calif.) equipped with a 488 nm argon ion laser. Green fluorescein isothiocyanate (FITC) fluorescence was collected with a 530/30 nm bandpass filter using logarithmic amplification and orange emission from propidium iodide (PI) was filtered through a 585/42 nm bandpass filter using linear amplification. A minimum of 20,000 events was collected on each sample. Cell cycle analysis of DNA histograms was performed with FlowJo software (Tree Star Inc., Ashland, Oreg.).

[2] = tested on: H460a NSCLC xenografts; assay: Antitumor efficacy in H460a NSCLC xenografts in nude mice; assay type: in vivo
Method: Female nude mice (10/group), obtained from Charles River Laboratories (Wilmington, Mass.) were used when they were approximately 13-14 weeks old and weighed approximately 23-25 grams. The health of all animals was determined daily by gross observation of experimental animals and by the analyses of blood samples of sentinel animals that were housed on the shared shelf racks. All animals were allowed to acclimate and recover from any shipping related stress for a minimum of 72 hours prior to experimental use. Autoclaved water and irradiated food [5058-ms Pico chow (mouse) Purina, Richmond, Ind.] were provided ad libitum, and the animals were maintained on a 12-hour light and dark cycle. Cages, bedding and water bottles were autoclaved before use and were changed weekly. Lovo human colorectal, Calu-6 NSCLC, and HCT116 colorectal cells were purchased from ATCC (Manassas, Va.). […] NSCLC cells were a gift from Dr. Jack Roth, MD Anderson Medical Center, Houston, Tex. Lovo cells were cultured in F12K culture medium, Calu-6 and […] were grown in Dulbecco's Modified Essential Medium (DMEM), and HCT116 cells were grown in McCoy's 5A medium. All culture media were supplemented with 10% (v/v) FBS and 1% (v/v) […] L-glutamine. […] Mice implanted with Lovo and Calu-6 xenografts were randomized on day 19 post-implant, mice implanted with HCT116 xenografts were randomized on day 20, while mice implanted with […] xenografts were randomized on day 12 post implant. […] Treatment for the Lovo and Calu-6 tumor studies began on Oct. 11, 2006 (day 19 post tumor cell implant), for the HCT116 study began on Oct. 16, 2006 (day 20 post tumor cell implant), and for the […] study on Oct. 11, 2006 (12 days post tumor cell implant). […] For the Lovo and Calu-6 studies, 21 day dosing ended on day 40 post-tumor cell implant. For intermittent dosing, treatment ended on day 26, was reinitiated on day 40, and ended day 47. For the HCT116 study, 21 day dosing ended on day 42 post tumor cell implant. Intermittent dosing ended on day 27, was reinitiated on day 42, and ended day 49. For the […] study, 21 day dosing ended early on day 27 post tumor cell implant, whereas for intermittent dosing, treatment ended day 19, and was not reinitiated (due to lack of efficacy). Efficacy data was graphically represented as the mean tumor volume ±standard error of the mean (SEM). […] Statistical analysis was determined by the rank sum test and One Way Anova and a post-hoc Bonferroni t-test (SigmaStat, version 2.0, Jandel Scientific, San Francisco, Calif.). […]

[3] = target: γ-secretase enzyme complex (Homo sapiens, UniProt P49768)
Method: Multiple in vitro assays were utilized to characterize the potency and selectivity of compound (1). The primary in vitro assay uses cell-free membrane preparations to provide the -secretase enzyme complex as an in vitro assay. […] The cellular processing of APP is measured using an ELISA-based readout. HEK293 cells have been engineered to over-express APP. Processing is measured by an ELISA-based quantitation of the A 1-40 secretase product. Cellular Notch inhibitory activity is measured using HEK293 cell line stably expressing a truncated human Notch 1 fused in its intracellular domain to a VP16/[…] transcriptional activator, which drives a firefly luciferase gene Inhibition of Notch processing produces a reduction in luciferase reporter activity as measured by its chemo luminescence.

## CC(C)(C(=O)NCC(F)(F)C(F)(F)F)C(=O)N[C@@H]1C(=O)Nc2ccccc2-c2ccccc21 [Compound (1), 2,2-Dimethyl-N—((S)-6-oxo-6,7-dihydro-5H-dibenzo[b,d]azepin-7-yl)-N′-(2,2,3,3,3-pentafluoro-propyl)-malonamide]
[1]; 0.10 μM, 72 hrs
  G1, %: 63.1%
  G2/M, %: 23.3%
  subG1, %: 6.5%
[1]; 0.10 μM, 120 hrs
  G1, %: 59.0%
  G2/M, %: 24.1%
  subG1, %: 6.8%
[1]; 0.25 μM, 72 hrs
  G1, %: 64.8%
  G2/M, %: 20.3%
  subG1, %: 5.9%
[1]; 0.25 μM, 120 hrs
  G1, %: 61.1%
  G2/M, %: 23.8%
  subG1, %: 6.7%
[1]; 0.50 μM, 72 hrs
  G1, %: 66.6%
  G2/M, %: 19.4%
  subG1, %: 4.3%
[1]; 0.50 μM, 120 hrs
  G1, %: 58.6%
  G2/M, %: 23.3%
  subG1, %: 9.6%
[1]; 1.0 μM, 72 hrs
  G1, %: 64%
  G2/M, %: 21.5%
  subG1, %: 6.6%
[1]; 1.0 μM, 120 hrs
  G1, %: 60.9%
  G2/M, %: 19.8%
  subG1, %: 8.0%
[1]; 5.0 μM, 72 hrs
  G1, %: 64.9%
  G2/M, %: 20%
  subG1, %: 8.4%
[1]; 5.0 μM, 120 hrs
  G1, %: 58.7%
  G2/M, %: 18.3%
  subG1, %: 13.7%
[2]; 3 mg/kg po qd, dosing ended early
  % TGI: 0%
[2]; 10 mg/kg po qd, dosing ended early
  % TGI: 0%
[2]; 30 mg/kg po qd × 7 days, not reinitiated
  % TGI: 0%
[2]; 60 mg/kg po qd × 7 days, not reinitiated
  % TGI: 0%
[3]
  IC50 in cellular and cell-free assays: low nanomolar range
